The values below come from patent US4804749A, “20-O-Acyl-19,20-enolmacrolide antibiotic derivatives” (Toyo Jozo Co., Ltd., priority 1986, dated 1989).

Converted amounts (≈) assume the structure as drawn.

What is called MIC is the lowest concentration that inhibits growth of the organism. A high value points to weaker potency. As a reminder, the AUC is the area under the concentration-time curve, a measure of exposure. Low values mean low exposure, high ones high exposure. The term ED50 denotes the dose that gives a 50% effect, or the effect in half of the subjects. Read a high ED50 as a need for a large dose.

One series concerns S. aureus, 209P. As to the kind of experiment: MIC against S. aureus, 209P. Type of series: cell-based. As to conditions: Staphylococcus aureus. The source says:
(§1) Antibacterial activities of certain compounds (I) of this invention and corresponding 19-formylmacrolide antibiotics as well as their levels in blood and therapeutic effects for infectious diseases upon their oral administration are compared in Table 2.
MIC (μg/ml): S. aureus, 209P

The nature of series [1]: Antibiotics levels in blood upon oral administration at 100 mg/kg to mice (by the paper disk method). In kind it is in vivo. As to conditions: mouse, ND: Below detectable limit; for Cmax: read-out: Antibiotics levels in blood upon oral administration: Peak value. The procedure:
as §1
Antibiotics levels in blood
upon oral administration at
100 mg/kg to mice (by the paper
disk method) (μg · h/ml)

Series [2] relates to S. pyogenes, S-23. In words: MIC against infective microorganism S. pyogenes, S-23. As to conditions: Streptococcus pyogenes, S23. Type of series: cell-based.
Source text: as §1

The test system of series [3] is S. pyogenes, S-23. In words: Treatment results of infectious diseases of mice by oral administration. In kind it is in vivo. To be noted: Streptococcus pyogenes, S23; mice infected with S. pyogenes S-23, oral administration.
Source text: as §1
infectious diseases of mice

Turning to `CCC(=O)OC1CC(=O)OC(CC)C(COC2OC(C)CC(OC)C2OC)C=C(C)C=CC(=O)C(C)CC(CC=O)C(OC2OC(C)C(O)C(N(C)C)C2O)C1C` (stereo not drawn) [Example 2a, 3O--Propionyl-4"-deoxydesmycosin, reference compound], 0.2 µg/mL (≈ 0.246 µM) was the least that counted as inhibitory against S. aureus, 209P (MIC). In series [1], the AUC came to 1570 ng·h/mL and the Cmax was 420 ng/mL.

As to `CCC(=O)OC=CC1CC(C)C(=O)C=CC(C)=CC(COC2OC(C)CC(OC)C2OC)C(CC)OC(=O)CC(OC(=O)CC)C(C)C1OC1OC(C)C(O)C(N(C)C)C1O` (stereo not drawn) [Example 2b, 3,20-Di-O-propionyl-19, 20-enol-4"-deoxydesmycosin], inhibition of growth against S. aureus, 209P (MIC) required 0.39 µg/mL (≈ 0.449 µM). For the same compound, in series [1], the AUC was 2800 ng·h/mL and the Cmax came to 2630 ng/mL.

`CCC(=O)OC1CC(=O)OC(CC)C(COC2OC(C)C(O)C(OC)C2OC)C=C(C)C=CC(=O)C(C)CC(CC=O)C(OC2OC(C)CC(N(C)C)C2O)C1C` (stereo not drawn) [Example 3a, 3O--Propionyl-4'deoxydesmycosin, reference compound] had a minimum inhibitory concentration (MIC) in the series with S. pyogenes, S-23 [2] of 0.05 µg/mL (≈ 0.0616 µM). Moreover, the minimum inhibitory concentration (MIC) against S. aureus, 209P was 0.2 µg/mL (≈ 0.246 µM). Besides, in series [1], the AUC was 1790 ng·h/mL and the Cmax stood at 430 ng/mL. In the series on S. pyogenes, S-23 [3], this compound gave an ED50 greater than 200 mg/kg.

Turning to `CCC(=O)OC=CC1CC(C)C(=O)C=CC(C)=CC(COC2OC(C)C(O)C(OC)C2OC)C(CC)OC(=O)CC(OC(=O)CC)C(C)C1OC1OC(C)CC(N(C)C)C1O` (stereo not drawn) [Example 3b, 3,20-Di-O-propionyl-19,20-enol-4'-deoxydesmycosin], the MIC was 0.2 µg/mL (≈ 0.23 µM) against S. pyogenes, S-23 [2] and 0.39 µg/mL (≈ 0.449 µM) in the series with S. aureus, 209P. The same compound registered an area under the curve (AUC) in series [1] of 4900 ng·h/mL. In addition, the Cmax in series [1] came out at 2710 ng/mL. The compound further showed an ED50 with S. pyogenes, S-23 [3] of 59 mg/kg.

Regarding `CCC(=O)OC1CC(=O)OC(CC)C(COC(=O)N(C)C)C=C(C)C=CC(=O)C(C)CC(CC=O)C(OC2OC(C)C(O)C(N(C)C)C2O)C1C` (stereo not drawn) [Ia, 3O--Propionyl-23-O--dimethylcarbamoyl-OMT, reference compound], the MIC in the series on S. pyogenes, S-23 [2] was determined as 0.1 µg/mL (≈ 0.138 µM); in the series with S. aureus, 209P it was 0.2 µg/mL (≈ 0.276 µM). In the series on S. pyogenes, S-23 [3], this compound came in with an ED50 greater than 400 mg/kg.

For `CCC(=O)OC=CC1CC(C)C(=O)C=CC(C)=CC(COC(=O)N(C)C)C(CC)OC(=O)CC(OC(=O)CC)C(C)C1OC1OC(C)C(O)C(N(C)C)C1O` (stereo not drawn) [Ib, 3,20-Di-O-propionyl-19,20-enol-23-O-dimethylcarbamoyl-OMT], the MIC with S. pyogenes, S-23 [2] was determined as 0.78 µg/mL (≈ 0.999 µM); in the series on S. aureus, 209P, 0.78 µg/mL (≈ 0.999 µM). Also, in series [1], the AUC was 6000 ng·h/mL. Further, the Cmax in series [1] came to 3000 ng/mL. The compound further registered an ED50 in the series on S. pyogenes, S-23 [3] of 100 to 200 mg/kg.
